These results are taken from patent publication US20060193776A1, “Screening methods employing zebrafish and the blood brain barrier” (priority 2004, published 2006).

Data set [1] has as its system zebrafish. In words: DMSO tolerance of zebrafish. The format is in vivo. To be noted: added to the fish water. From the text: Zebrafish are also DMSO (dimethyl sulphoxide) tolerant. This is important as DMSO is used as a solvent to dissolve many drugs. The inventors have established that zebrafish can tolerate 1% DMSO. Thus, a candidate drug or other test substance may be dissolved in DMSO and administered to zebrafish by adding to the fish water to give a final concentration of DMSO of at least up to 1%. This is employed in various preferred aspects and embodiments of the present invention.

For data set [2], the system named is blood brain barrier of zebrafish larvae. In words: Dye exclusion experiments: dye injected into pericardial region, fluorescence intensity in the brain quantified. As to the method: Evans Blue dye (961 Da) was used to investigate the presence of BBB in zebrafish larvae. […] In rodents, Evans Blue leakage is observed following brain trauma.
1) 2% Evans Blue in 0.9% saline was injected into pericardial sac of larvae from 2 days post-fertilisation (d.p.f.) to 1 month old. 0.9% saline was injected as a control.
2) The larvae were left to develop for 6 hours to allow the dye to penetrate from bloodstream into tissues.
3) The larvae were viewed under fluorescent dissecting scope (TRITC filter) to ensure that dye was present in blood vessels.
5) They were embedded in O.C.T. (Optimal Cutting Temperature compound) and 10 μm frozen sections were taken in parasaggital plane.
6) Midline sections were viewed on fluorescent microscope (TRITC filter) at ×40 magnification. Images were taken of Evans Blue injected and saline injected samples.
7) Fluorescent intensity was measured in 3 regions of control and Evans Blue injected samples using AnalySis software. Mean fluorescent intensity was calculated for each age group.
Injection stocks of 2% evans blue in 0.9% saline and a 10% sodium fluorescein in 0.9% saline were prepared and stored at 4° C. Larvae were anaesthetised by immersion in 0.2 mg/ml 3-amino benzoic acid (MS222) prior to being immobilised and oriented in 3% methyl cellulose in embryo medium in a lateral position such that the heart was accessible. Larvae and juveniles from 2 days post-fertilisation (d.p.f.) to 30 d.p.f. were injected into the pericardial region with 0.5 to 2 nl of dye or saline control, depending on age, using standard zebrafish egg microinjection apparatus (Westerfield, 1995). Fish were transferred to fresh embryo medium to recover from anaesthesia, then viewed using a fluorescence dissecting microscope at 1 hour intervals to determine the time of uptake of the dye into the circulation and the time at which dye had permeated from the circulation into non-vascular body tissue. Dye and saline injected larvae were anaesthetised at 4 hours and 6 hours after injection and fixed in 4% paraformaldehyde in PBS. 10 larvae per age group and injection treatment were embedded in Sakura Tissue-Tek OCT Compound (Bayer, Newbury, UK) and frozen parasagittal sections were cut at 10 μm thickness.
Sections were visualised without mounting medium by fluorescence microscopy on an Olympus BX51 microscope. Three midline sagittal sections from each larva were identified and images were captured using a ColorView camera (Olympus) and AnalySis software (Soft Imaging System). The fluorescence intensity within the brain was quantified for each midline section of each larva in each treatment group using colour threshold and area measurements in AnalySis. Mean values, standard deviations and T-tests were calculated using Excel software (Microsoft Office).

For data set [3] the following is noted: rodents; cited from earlier work.
The conditions of data set [4]: clinical, humans; cited from earlier work.
For data set [5] the following is noted: mammals; cited from earlier work.

For the molecule `C[S+](C)[O-]` [DMSO, dimethyl sulphoxide], in data set [1], the “concentration tolerated by zebrafish” value is listed as 1%.
Take `Cc1cc(-c2ccc(/N=N/c3ccc4c(S(=O)(=O)O)cc(S(=O)(=O)O)c(N)c4c3O)c(C)c2)ccc1/N=N/c1ccc2c(S(=O)(=O)O)cc(S(=O)(=O)O)c(N)c2c1O` [Evans Blue]: in data set [2] (3 d.p.f., dye injected into pericardial sac, 6 hours), the “fluorescence in the brain” value is listed as “High level of fluorescence in the brain”. In data set [2] (5 d.p.f., dye injected into pericardial sac, 6 hours), the “brain fluorescence compared with saline injected samples” value was “no different from saline injected samples”. The “change of fluorescent intensity in the brain with age” value in data set [2] (FIG. 2, days post-fertilisation) was “age dependent decrease”. Further, the “day from which excluded from the brain” value in data set [2] (peripheral injection) came to 5 days. In addition, the “exclusion from the brain” value in data set [3] is “excluded from the brain if the BBB is intact”.
As to `O=C(O)COCCN1CCN(C(c2ccccc2)c2ccc(Cl)cc2)CC1` (stereo not drawn) [cetirizine], in data set [4], the “sedating or non-sedating antihistamine” value was “non-sedating”.
With `Clc1ccc2c(c1)CCc1cccnc1C2=C1CCNCC1` [desloratadine], in data set [5], the “crosses the BBB” value was “does not cross the BBB”.
Regarding `OCCOCCN1CCN(C(c2ccccc2)c2ccc(Cl)cc2)CC1` (stereo not drawn) [hydroxyzine], in data set [4], the “sedating or non-sedating antihistamine” value was “sedating”.
With `CCOC(=O)N1CCC(=C2c3ccc(Cl)cc3CCc3cccnc32)CC1` [loratadine], the “sedating or non-sedating antihistamine” value in data set [4] is reported as “non-sedating”.
For `O=C([O-])c1ccccc1-c1c2ccc(=O)cc-2oc2cc([O-])ccc12.[Na+].[Na+]` [sodium fluorescein], in data set [2] (peripheral injection), the “day from which excluded from the brain” value is 10 days and the “day until which it permeates into the brain” value was determined as 8 days. In addition, the “age at which fluorescent intensity in the brain decreases sharply (exclusion from the brain)” value in data set [2] (peripheral injection, versus saline controls) is reported as 10 d.p.f.
Turning to `Cc1ccc(/C(=C\CN2CCCC2)c2ccccn2)cc1` [triprolidine], the “sedating or non-sedating antihistamine” value in data set [4] is “sedating”.
For the molecule rhodamine 123, the “age at which fluorescent intensity in the brain decreases sharply (exclusion from the brain)” value in data set [2] (zebrafish, in vivo) is on record as 8 d.p.f.
